# Reference: patent US9125937B2, “Labelled analogues of halobenzamides as multimodal radiopharmaceuticals and their precursors” (INSTITUT NATIONAL DE LA SANTE ET DE LA RECHERCHE MEDICALE …, priority 2008, dated 2015)
# Where “and” joins values, the source holds several entries; their conditions need not be identical. Identical values can stand only once. Counter-ions that a name gives are not always drawn.
# Key:
# [1] = system: B16F10 and B16F0 murine melanoma tumour grafts; assay: PET imaging of melanoma-bearing mice; assay type: in vivo, C57BL6 mice
# Protocol: Imaging Protocol. Three sets of mice were prepared for PET imaging as described in FIG. 3 in annex: • (Set 1) Four C57BL6 mice bearing both B16F10 and B16F0 murine melanoma tumour grafts on the flanks were anaesthetized with isoflurane and injected with [^18F]10 (200 μCi). Two were imaged immediately during the first hour after injection, allowed to recover from anaesthesia, anaesthetized again at two hours post injection and imaged between two and two-and-a-half hour after injection, allowed to recover from anaesthesia, anaesthetized again at four hours post injection and imaged between four and four-and-a-half hour after injection, then sacrificed and their organs weighed and counted. Two other mice were allowed to recover from anaesthesia, anaesthetized at two hours post injection and imaged between two and two-and-a-half hour after injection, allowed to recover from anaesthesia, anaesthetized again at four hours post injection and imaged between four and four-and-a-half hour after injection, then sacrificed and their organs weighed and counted. • (Set 2) Two C57BL6 mice bearing both B16F10 and B16F0 murine melanoma tumour grafts on the shoulders (so as to avoid contaminating signals originating from with digestive and urinary tracts) were injected with [^18F]10 (200 μCi), imaged under isoflurane anesthesia continuously during two hours, then sacrificed and their organs weighed and counted. • (Set 3) One C57BL6 mouse bearing both B16F10 and B16F0 murine melanoma tumour grafts on the shoulders (so as to avoid contaminating signals originating from with digestive and urinary tracts) was injected with [^18F]10 (600 μCi), allowed to recover, anaesthetized with isoflurane six hours post injection, imaged during 30 minutes between six and six-and-a-half hours post injection.
# PET Imaging. […] All values of radioactivity concentrations were normalized for radioactivity decay, as well as by the injected dose of radiotracer, and expressed as percentage of the injected dose per volume of tissue (% ID/cc). […]
# [2] = system: B16F10 and B16F0 murine melanoma tumour grafts; assay: Ex vivo biodistribution by organ counting after PET imaging; assay type: in vivo; details: two-and-a-half and four-and-a-half hours after i.v. injection, FIG. 4
# Protocol: Imaging Protocol. Three sets of mice were prepared for PET imaging as described in FIG. 3 in annex: • (Set 1) Four C57BL6 mice bearing both B16F10 and B16F0 murine melanoma tumour grafts on the flanks were anaesthetized with isoflurane and injected with [^18F]10 (200 μCi). Two were imaged immediately during the first hour after injection, allowed to recover from anaesthesia, anaesthetized again at two hours post injection and imaged between two and two-and-a-half hour after injection, allowed to recover from anaesthesia, anaesthetized again at four hours post injection and imaged between four and four-and-a-half hour after injection, then sacrificed and their organs weighed and counted. […]
# Biodistribution. [^18F]10 biodistribution was analysed for the mice of set 1 (n=4) four-and-a-half hours after injection, and for the mice of set 2 (n=2) two-and-a-half hours after injection. Animals were sacrificed by lethal injection of pentobarbital and organs were collected, weighed and radioactivity of each sample was measured on a Cobra gamma counter (Packard). […]
# B16F0 melanoma tumour [3] = assay: Tumour uptake by counting of tumour tissue after dissection (gamma counter); assay type: in vivo, mice
# Excerpt: (§1) (iii) For the compound N-(2-diethylaminoethyl)-6-iodoquinoxaline-2-carboxamide, which is described in PCT application n°PCT/IB2007/052992 as compound n°45 in table I of said patent application (hereinafter called “ICF01012”), the tumour uptake has been quantified by 3 methods: camera imaging, autoradiography and counting of tumour tissue after dissection (gamma counter), values are summarized below.
# B16 F0 murine melanoma = assay: Biodistribution study by planar scintigraphic imaging (gamma camera), tumour uptake quantification; assay type: in vivo, C57BL6 male mice; details: i.v.
# Protocol: (§2) Tumour Implantation. For transplantation, cells grown in monolayer culture to confluence were trypsinized and washed with phosphate buffer saline (PBS). They were resuspended in PBS and each mouse received 0.1 mL subcutaneously (3×10^5 cells) on the left flank in order to allow a tumour growth on the body side. Ten days later, the tumours became palpable with a percentage of tumour take of 98-100%.
# The in vivo biodistribution and kinetic profile of each radiolabelled (iodine-125) compound have been studied in C57BL6 male mice bearing the B16 F0 murine melanoma by repeated planar scintigraphic imaging which allows the tumour uptake follow-up in the same animal.
# Gamma Camera. In vivo radionuclide imaging was performed using a γ IMAGER (Biospace Mesures, Paris, France) especially dedicated for small animal, a scintigraphic camera with a continuous 4 mm thick×120 mm diameter CsI(Na) crystal, a position-sensitive Hamamatsu R3292 photomultiplier and a 10 cm field of view.
# Imaging Protocol. On day 14 after tumour implantation (tumour weight 0.25±0.10 g) each [^125I]-radioiodinated compound was administered intravenously via a tail vein (0.1 μmol, range 3.7 to 7 MBq/animal) in three mice for each compound. At different times after administration (1, 3, 6, 24, 72 hours, 5, 7, 10 and 15 days), mice were anesthetized with 0.2 mL, for a 20 g mouse, of a ketamine-xylazine mixture in saline (1-0.25 mL for 5 mL) by i. p. administration, and repeated planar scintigraphic whole body imaging (mouse laying in anterior position on the camera field) were performed by an acquisition time of 10 min. For this study, the camera was equipped with a 1.8/0.2/20 collimator (hole diameter/septum thickness/height in mm).
# Tumoural Radioactivity Quantification Approach. The injected activity to each mouse was determined from scintigraphic imaging of the syringe before and after the injection using the γ-IMAGER.
# Regions of interest (ROIs) were delineated over the whole body image: whole body uptake area (or the various fixing areas, eyes, thyroid and abdomen) and one for the tumour uptake area. In the various ROIs, the activity (cpm) was quantified using the Biospace measures γ VISION+software. These values were normalized to the injected dose. For the tumour, the activity was also normalized to the tumour weight. Firstly, the volume was calculated from the two dimensions caliper measurement (Bissery, M. C.; Guenard, D.; Gueritte-Voegelin, F.; Lavelle, F. Experimental antitumour activity of taxotere (RP 56976, NSC 628503) a taxol analogue. Cancer res. 1991, 51, 4845-4852). Secondly, the weight was determined from the volume value corrected by a factor determined from a large panel of experiments (Weight g=volume mm^3×0.6). The data were expressed as % ID/g of B 16F0 melanoma tumour.
# B16F0 melanoma tumour [4] = assay: Tumour uptake by whole body sectioning autoradiography; assay type: in vivo, mice
# Excerpt: (ii) A comparison camera quantified in vivo values with values determined using the whole body sectioning conventional autoradiographic method has been done for several compounds. The correlation coefficient obtained between the two methods was 0.92.
# as §1
# [5] = system: subcutaneous B16F0 melanoma; assay: Radionuclide therapy experiment (anti-tumoural efficacy); assay type: in vivo, C57BL/6J mice
# Protocol: Animals. All experiments were carried out in accordance with the institution recommendations based on the guide for the care and use of laboratory animals. For therapy experiment, we used 6- to 8-week-old C57BL/6J male mice (Charles River Laboratories).
# as §2
# [^131I]11 treatment was administered intravenously at days 6 and 10 after tumour implantation (2×18.5 MBq) in groups of 10 mice. In the same conditions untreated-animals were studied. From three days before the treatment and along the experiment, lugol's iodine solution was added in the two mice groups alimentation to block iodine thyroid uptake. To monitor tumoral growth, tumor volume in mm^3 was calculated twice a week from the measurement of two perpendicular diameters using a caliper according to the formula L×S^2/2 where L and S are the largest and smallest diameters in mm respectively. At day 19 of the experiment, mice were sacrificed. Tumours were removed, dissected and weighted.
# Statistical Analyses. In experiment data are given as mean+SEM and were analyzed by the Student or ANOVA tests.
# Anti-tumoural Efficacy of Targeted Radionuclide Therapy. To assess the therapeutic efficacy of compound [^131I]11 in C57BL/6J mice bearing subcutaneous B16F0 melanoma cells, we injected twice 18.5 MBq [^131I]11 into group of 10 mice. […] The body weight of mice in all groups was stable (data not shown). The weight of tumours at 19 days were 2.29±1.03 g and 0.72±0.28 g respectively for controls and treated.
smiles,measurement,setting,value
"CCN(CCNC(=O)c1cnc2cc(I)ccc2n1)CCOc1cccnc1[18F] [[^18F]10, [^18F]N-[2-[N-ethyl-N-[2-(2-fluoropyridin-3-yloxy)ethyl]amino]ethyl]-6-iodoquinoxaline-2-carboxamide]",Uptake (% injected dose per volume tumour graft) in B16F0 relative to B16F10 tumour grafts,"[1]; 2 and 4 hours post injection, same animal, FIGS. 5 and 6",more than two-to-three times higher
same,Uptake in B16F0 with respect to B16F10,"[1]; dynamic PET, FIG. 7, Set 2",two-to-three times higher
same,Contrast between melanoma grafts and surrounding tissue on PET images,[1]; two to two-and-a-half hours and six to six-and-a-half hours post injection,evident contrast
same,"Biodistribution in selected organs (% ID/CC), tumour targeting",[2],specifically target melanoma tumours in vivo
"CCN(CC)CCNC(=O)c1cnc2cc([125I])ccc2n1 [[^125I]ICF01012, reference compound]",Radioactive concentration in tumour,B16F0 melanoma tumour [3]; 1 H,14.9 ± 5.7 % ID/g
same,Radioactive concentration in tumour,B16F0 melanoma tumour [3]; 3 H,28.1 ± 8.9 % ID/g
same,Radioactive concentration in tumour,B16F0 melanoma tumour [3]; 6 H,29.9 ± 2.8 % ID/g
same,Radioactive concentration in tumour,B16F0 melanoma tumour [3]; 24 H,29.7 ± 3.1 % ID/g
same,Radioactive concentration in tumour,B16F0 melanoma tumour [3]; 72 H,11.4 ± 2.6 % ID/g
same,Radioactive concentration in tumour (tumoural uptake),B16 F0 murine melanoma; 1 H post injection,21.8 ± 6.6 % ID/g
same,Radioactive concentration in tumour (tumoural uptake),B16 F0 murine melanoma; 3 H post injection,26.2 ± 6.6 % ID/g and 26.3 ± 6.6 % ID/g
same,Radioactive concentration in tumour (tumoural uptake),B16 F0 murine melanoma; 6 H post injection,29.6 ± 8.4 % ID/g
same,Radioactive concentration in tumour (tumoural uptake),B16 F0 murine melanoma; 24 H post injection,28.0 ± 8.1 % ID/g and 28.0 ± 8.2 % ID/g
same,Radioactive concentration in tumour (tumoural uptake),B16 F0 murine melanoma; 72 H post injection,12.3 ± 3.7 % ID/g
same,Radioactive concentration in tumour (tumoural uptake),B16 F0 murine melanoma; 120 H post injection,7.3 ± 3.6 % ID/g
same,Radioactive concentration in tumour (tumoural uptake),B16 F0 murine melanoma; 168 H post injection,3.4 ± 0.3 % ID/g
same,Radioactive concentration in tumour (tumoural uptake),B16 F0 murine melanoma; 240 H post injection,1.9 ± 0.4 % ID/g
same,Radioactive concentration in tumour,B16F0 melanoma tumour [4]; 1 H,17 ± 11.1 % ID/g
same,Radioactive concentration in tumour,B16F0 melanoma tumour [4]; 3 H,27.7 ± 7.0 % ID/g
same,Radioactive concentration in tumour,B16F0 melanoma tumour [4]; 6 H,36.4 ± 7.6 % ID/g
same,Radioactive concentration in tumour,B16F0 melanoma tumour [4]; 24 H,21.7 ± 10.8 % ID/g
same,Radioactive concentration in tumour,B16F0 melanoma tumour [4]; 72 H,12.5 ± 1.6 % ID/g
"CCN(CCNC(=O)c1cnc2cc([131I])ccc2n1)CCOc1cccnc1F [[^131I]11, [^131I]N-[2-[N-ethyl-N-[2-(2-fluoropyridin-3-yloxy)ethyl]amino]ethyl]-6-iodoquinoxaline-2-carboxamide dihydrochloride salt]",Weight of tumours at 19 days,"[5]; 2×18.5 MBq i.v. at days 6 and 10, controls 2.29±1.03 g, p=0.01",0.72 ± 0.28 g
same,Tumour doubling time,"[5]; 2×18.5 MBq i.v. at days 6 and 10 after tumour implantation, untreated 2.82±0.30 days",3.83 ± 0.34 days
same,Body weight of mice,"[5]; all groups, data not shown",stable
same,Ratio T/C of tumour weight at 19 days,[5]; treated vs controls,0.31
same,Effect on B16F0 tumoural growth,"[5]; tumour volume, p<0.001 vs untreated",significantly slowed the B16F0 tumoural growth
